Data taken from PubChem BioAssay (NCI).
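GI50 marks 50% less growth. TGI denotes the concentration required for complete inhibition of growth.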

Key:
Assay in all cases: NCI tumour cell line growth inhibition, 384-well format
[1] = test system: NCI-H226 lung
[2] = test system: KM12 colon
[3] = test system: NCI/ADR-RES ovarian
[4] = test system: HOP-62 NSCLC
[5] = test system: PC-3 prostate
[6] = test system: SW-620 colon
[7] = test system: CAKI-1 renal
[8] = test system: A549 NSCLC
[9] = test system: RPMI-8226 leukemia
[10] = test system: SK-OV-3 ovarian
[11] = test system: OVCAR-3 ovarian
[12] = test system: EKVX NSCLC
[13] = test system: U251 glioblastoma
[14] = test system: HCC-2998 colon
[15] = test system: OVCAR-8 ovarian
[16] = test system: SF-539 CNS
[17] = test system: HL-60(TB) leukemia
[18] = test system: NCI-H23 lung
[19] = test system: M14 melanoma
[20] = test system: BT-549 breast
[21] = test system: UACC-257 melanoma
[22] = test system: HS 578T breast
[23] = test system: CCRF-CEM leukemia
[24] = test system: NCI-H460 NSCLC
[25] = test system: MALME-3M melanoma
[26] = test system: SK-MEL-5 melanoma
[27] = test system: SN12C renal
[28] = test system: ACHN renal
[29] = test system: OVCAR-4 ovarian
[30] = test system: MDA-MB-231 breast
[31] = test system: T-47D breast
[32] = test system: HCT-116 colon
[33] = test system: HCT-15 colon
[34] = test system: SK-MEL-28 melanoma
[35] = test system: COLO 205 colon
[36] = test system: UO-31 renal
[37] = test system: HT29 colon
[38] = test system: SNB-75 CNS
[39] = test system: TK-10 renal
[40] = test system: NCI-H522 lung
[41] = test system: 786-0 renal
[42] = test system: SNB-19 CNS
[43] = test system: MDA-MB-468 breast
[44] = test system: HOP-92 NSCLC
[45] = test system: RXF 393 renal
[46] = test system: MDA-MB-435 melanoma
[47] = test system: LOX IMVI melanoma
[48] = test system: MCF7 breast
[49] = test system: IGROV1 ovarian
[50] = test system: NCI-H322M lung
[51] = test system: K-562 leukemia
[52] = test system: UACC-62 melanoma
[53] = test system: SR leukemia
[54] = test system: SF-295 CNS
[55] = test system: DU-145 prostate
[56] = test system: MOLT-4 leukemia
[57] = test system: A498 renal
[58] = test system: SF-268 CNS
[59] = test system: OVCAR-5 ovarian
[60] = test system: SK-MEL-2 melanoma

`CN(C)CCCOc1ccc(-c2ccc3ncc4c(c3c2)n(C2CCOCC2)c(=O)n4C)cn1` was tested, and the GI50 [1] was 3.73 µM, the TGI [1] was > 100 µM and the GI50 [2] was 2.67 µM. For the same compound, the TGI [2] was 26 µM, the GI50 [3] was > 100 µM and the TGI [3] was > 100 µM. For the same compound, the GI50 [4] was 3.81 µM, the TGI [4] was > 100 µM and the GI50 [5] was 1730 nM. The TGI [5] was 12 µM, the GI50 [6] was 4.91 µM and the TGI [6] was > 100 µM. For the same compound, the GI50 [7] was 1450 nM, the TGI [7] was 6.38 µM and the GI50 [8] was 3.91 µM. The TGI [8] was > 100 µM, the GI50 [9] was 738 nM and the TGI [9] was 2.39 µM. It also gave a GI50 [10] of 2450 nM, a TGI [10] of 71.9 µM and a GI50 [11] of 1690 nM. For the same compound, the TGI [11] was 4.86 µM, the GI50 [12] was 2.39 µM and the TGI [12] was > 100 µM. The GI50 [13] was > 100 µM, the TGI [13] was > 100 µM and the GI50 [14] was 3.12 µM. The TGI [14] was > 100 µM, the GI50 [15] was 5.22 µM and the TGI [15] was > 100 µM. The GI50 [16] was 3850 nM, the TGI [16] was > 100 µM and the GI50 [17] was 2950 nM. The TGI [17] was 11 µM, the GI50 [18] was 8.22 µM and the TGI [18] was > 100 µM. For the same compound, the GI50 [19] was 3.32 µM, the TGI [19] was > 100 µM and the GI50 [20] was 3560 nM. The TGI [20] was 30 µM, the GI50 [21] was > 100000 nM and the TGI [21] was > 100 µM. The GI50 [22] was 1470 nM, the TGI [22] was 4.14 µM and the GI50 [23] was 1950 nM. It also gave a TGI [23] of 10 µM, a GI50 [24] of 1500 nM and a TGI [24] of 96.2 µM. For the same compound, the GI50 [25] was 1240 nM, the TGI [25] was 6.1 µM and the GI50 [26] was 2230 nM. The TGI [26] was > 100 µM, the GI50 [27] was 2320 nM and the TGI [27] was 32.8 µM. For the same compound, the GI50 [28] was 5.21 µM, the TGI [28] was > 100 µM and the GI50 [29] was 7.94 µM. The TGI [29] was > 100 µM, the GI50 [30] was 2080 nM and the TGI [30] was > 100 µM. For the same compound, the GI50 [31] was 1.22 µM, the TGI [31] was 11.7 µM and the GI50 [32] was 6.44 µM. For the same compound, the TGI [32] was 55.7 µM, the GI50 [33] was 5.01 µM and the TGI [33] was > 100 µM. The GI50 [34] was 5.73 µM, the TGI [34] was > 100 µM and the GI50 [35] was 2.17 µM. For the same compound, the TGI [35] was 13.5 µM, the GI50 [36] was 4.78 µM and the TGI [36] was > 100 µM. The GI50 [37] was 4.36 µM, the TGI [37] was 27.8 µM and the GI50 [38] was 2760 nM. For the same compound, the TGI [38] was > 100000 nM, the GI50 [39] was 3000 nM and the TGI [39] was 49.5 µM. The GI50 [40] was 3.48 µM, the TGI [40] was > 100 µM and the GI50 [41] was 5.99 µM. For the same compound, the TGI [41] was > 100 µM, the GI50 [42] was 22.9 µM and the TGI [42] was > 100 µM. It also gave a GI50 [43] of 2470 nM, a TGI [43] of 19.9 µM and a GI50 [44] of 3.45 µM. For the same compound, the TGI [44] was 20.2 µM, the GI50 [45] was 5.05 µM and the TGI [45] was > 100000 nM. The GI50 [46] was 6.28 µM, the TGI [46] was > 100 µM and the GI50 [47] was 2450 nM. For the same compound, the TGI [47] was 14.5 µM, the GI50 [48] was 1.91 µM and the TGI [48] was > 100 µM. For the same compound, the GI50 [49] was 1170 nM, the TGI [49] was 6.42 µM and the GI50 [50] was 3.21 µM. It also gave a TGI [50] of 36.7 µM, a GI50 [51] of 7.55 µM and a TGI [51] of 30.6 µM. The GI50 [52] was 4.33 µM, the TGI [52] was 23.3 µM and the GI50 [53] was 172 nM. For the same compound, the TGI [53] was 445 nM, the GI50 [54] was 2.95 µM and the TGI [54] was > 100 µM. For the same compound, the GI50 [55] was 4.92 µM, the TGI [55] was > 100 µM and the GI50 [56] was 1390 nM. For the same compound, the TGI [56] was 4.71 µM, the GI50 [57] was 2540 nM and the TGI [57] was > 100 µM. For the same compound, the GI50 [58] was 4.23 µM and the TGI [58] was > 100 µM.

`COc1cc(OC)cc(N(CCNC(C)C)c2ccc3ncc(-c4cnn(C)c4)nc3c2)c1` was tested, and the GI50 [1] was 2.57 µM, the TGI [1] was 11 µM and the GI50 [2] was 4.88 µM. The TGI [2] was 16.1 µM, the GI50 [3] was 3.56 µM and the TGI [3] was 11.8 µM. It also gave a GI50 [4] of 4.16 µM, a TGI [4] of 13 µM and a GI50 [5] of 3610 nM. It also gave a TGI [5] of 13.1 µM, a GI50 [6] of 4.34 µM and a TGI [6] of 14.2 µM. It also gave a GI50 [7] of 1590 nM, a TGI [7] of 4.16 µM and a GI50 [8] of 3.73 µM. For the same compound, the TGI [8] was 11.2 µM, the GI50 [9] was 3680 nM and the TGI [9] was 12.3 µM. The GI50 [10] was 2010 nM, the TGI [10] was 5.35 µM and the GI50 [11] was 3620 nM. The TGI [11] was 13.1 µM, the GI50 [12] was 7.26 µM and the TGI [12] was 15.7 µM. It also gave a GI50 [13] of 5.92 µM, a TGI [13] of 14.8 µM and a GI50 [14] of 4.52 µM. It also gave a TGI [14] of 9.47 µM, a GI50 [59] of 5.47 µM and a TGI [59] of 17 µM. The GI50 [15] was 5.09 µM, the TGI [15] was 14.1 µM and the GI50 [16] was 946 nM. For the same compound, the TGI [16] was 7.77 µM, the GI50 [17] was 2510 nM and the TGI [17] was 4.65 µM. It also gave a GI50 [18] of 4.66 µM, a TGI [18] of 13.5 µM and a GI50 [19] of 2.85 µM. For the same compound, the TGI [19] was 7.68 µM, the GI50 [20] was 630 nM and the TGI [20] was 5.83 µM. The GI50 [21] was 2280 nM, the TGI [21] was 4.72 µM and the GI50 [22] was 1500 nM. It also gave a TGI [22] of 3.73 µM, a GI50 [24] of 2630 nM and a TGI [24] of 7.1 µM. The GI50 [25] was 2270 nM, the TGI [25] was 4.97 µM and the GI50 [60] was 2150 nM. The TGI [60] was 4.8 µM, the GI50 [26] was 1660 nM and the TGI [26] was 3.66 µM. It also gave a GI50 [27] of 3190 nM, a TGI [27] of 10.8 µM and a GI50 [28] of 2.03 µM. For the same compound, the TGI [28] was 5.45 µM, the GI50 [29] was 4.66 µM and the TGI [29] was 17.1 µM. For the same compound, the GI50 [30] was 2750 nM, the TGI [30] was 8.18 µM and the GI50 [31] was 6.41 µM. It also gave a TGI [31] of 12.6 µM, a GI50 [32] of 2.96 µM and a TGI [32] of 9.31 µM. For the same compound, the GI50 [33] was 2.99 µM, the TGI [33] was 10.1 µM and the GI50 [34] was 6.2 µM. It also gave a TGI [34] of 16.4 µM, a GI50 [35] of 4.59 µM and a TGI [35] of 12.6 µM. It also gave a GI50 [36] of 3.04 µM, a TGI [36] of 8.81 µM and a GI50 [37] of 3.97 µM. It also gave a TGI [37] of 11.2 µM, a GI50 [38] of 132 nM and a TGI [38] of 1690 nM. The GI50 [39] was 2790 nM, the TGI [39] was 10.1 µM and the GI50 [40] was 3.44 µM. The TGI [40] was 10.3 µM, the GI50 [41] was 2.17 µM and the TGI [41] was 5.11 µM. It also gave a GI50 [42] of 9.29 µM, a TGI [42] of 22 µM and a GI50 [43] of 2010 nM. For the same compound, the TGI [43] was 4.47 µM, the GI50 [44] was 2.91 µM and the TGI [44] was 9.38 µM. It also gave a GI50 [45] of 1.02 µM, a TGI [45] of 2890 nM and a GI50 [46] of 3.49 µM. The TGI [46] was 10.6 µM, the GI50 [47] was 2710 nM and the TGI [47] was 6.09 µM. For the same compound, the GI50 [48] was 7.81 µM, the TGI [48] was 15.3 µM and the GI50 [49] was 2190 nM. It also gave a TGI [49] of 5.78 µM, a GI50 [50] of 3.88 µM and a TGI [50] of 12.9 µM. The GI50 [51] was 0.89 µM, the TGI [51] was 2.15 µM and the GI50 [52] was 3.49 µM. It also gave a TGI [52] of 12.4 µM, a GI50 [53] of 1570 nM and a TGI [53] of 2940 nM. For the same compound, the GI50 [54] was 9.3 µM, the TGI [54] was 18.3 µM and the GI50 [55] was 4.12 µM. For the same compound, the TGI [55] was 14 µM, the GI50 [56] was 1510 nM and the TGI [56] was 2.93 µM. For the same compound, the GI50 [57] was 2680 nM, the TGI [57] was 8.53 µM and the GI50 [58] was 4.42 µM. The TGI [58] was 15.9 µM.
